Literature values as cited in US20090082295A1, “COMBINATIONS AND METHODS OF USING AN IMMUNOMODULATORY OLIGODEOXYNUCLEOTIDE” (PFIZER INC., priority 2005, published 2009).
Structures can show the parent of a compound that is named as a salt.

Legend:
mitotic microtubules = details: intact tectal plates from mouse embryos
axonal microtubules = details: intact tectal plates from mouse embryos
mammalian cells = details: high concentrations
[1] = tested on: Lewis lung murine xenograft
[2] = combination with cisplatin
[3] = tested on: LX-1 human lung xenograft
[4] = tested on: CALU-6 human lung xenograft
[5] = tested on: topoisomerase I purified from human and rodent tumor cell lines; details: purified enzyme
[6] = tested on: rat mammary carcinoma induced by dimethylbenzanthracene (DMBA)
[7] = tested on: xenotransplant models of colon cancer; details: nude (athymic) mice

Compound: CCC1=C[C@@H]2CN(C1)Cc1c([nH]c3ccccc13)[C@@](C(=O)OC)(c1cc3c(cc1OC)N(C)[C@H]1[C@@](O)(C(=O)OC)[C@H](OC(C)=O)[C@]4(CC)C=CCN5CC[C@]31[C@@H]54)C2 (relative stereo) [vinorelbine, 3′,4′-didehydro-4′-deoxy-C′-norvincaleukoblastine[R—(R*,R*)-2,3-dihydroxybutanedioate (1:2) (salt)]]
- concentration inhibiting mitotic microtubule formation, inducing a blockade of cells at metaphase (mitotic microtubules): 2 µM
- concentration producing depolymerization of axonal microtubules (axonal microtubules): 40 µM

Compound: COc1cc([C@@H]2c3cc4c(cc3[C@@H](O[C@@H]3O[C@@H]5CO[C@@H](C)O[C@H]5[C@H](O)[C@H]3O)[C@H]3COC(=O)[C@H]23)OCO4)cc(OC)c1O [Etoposide, 4′-Demethylepipodophyllotoxin 9-[4,6-0-(R)-ethylidene-β-D-glucopyranoside]]
- concentration at which lysis of cells entering mitosis is observed (mammalian cells): ≥ 10 µg/mL

Compound: Nc1ccn([C@@H]2O[C@H](CO)[C@@H](O)C2(F)F)c(=O)n1 [Gemcitabine, 2′-deoxy-2′,2′-difluorocytidine monohydrochloride (β-isomer)]
- interaction with cisplatin [1]: synergistic
- activity with cisplatin in vitro [2]: dose-dependent synergistic activity
- activity in combination with cisplatin (NCI-H460 xenograft): minimal activity
- activity in combination with cisplatin [3]: showed activity
- activity in combination with cisplatin (NCI-H520 xenograft): minimal activity
- activity in combination with cisplatin [4]: showed activity

Compound: CCc1c2c(nc3ccc(O)cc13)-c1cc3c(c(=O)n1C2)COC(=O)[C@]3(O)CC [SN-38]
- potency as inhibitor of topoisomerase I relative to irinotecan [5]: approximately 1000 times

Compound: CC/C(=C(\c1ccccc1)c1ccc(OCCN(C)C)cc1)c1ccccc1 [Tamoxifen, (Z)2-[4-(1,2-diphenyl-1-butenyl)phenoxy]-N, Ndimethylethanamine 2-hydroxy-1,2,3-propanetricarboxylate (1:1)]
- effect on DMBA-induced mammary carcinoma [6]: inhibits the induction of rat mammary carcinoma induced by dimethylbenzanthracene (DMBA) and causes the regression of already established DMBA-induced tumors

Compound: CC[C@]1(O)C[C@@H]2CN(CCc3c([nH]c4ccccc34)[C@@](C(=O)OC)(c3cc4c(cc3OC)N(C)[C@H]3[C@@](O)(C(=O)OC)[C@H](OC(C)=O)[C@]5(CC)C=CCN6CC[C@]43[C@@H]65)C2)C1 [vinblastine]
- concentration inhibiting mitotic microtubule formation, inducing a blockade of cells at metaphase (mitotic microtubules): 2 µM
- concentration producing depolymerization of axonal microtubules (axonal microtubules): 30 µM

Compound: CC[C@]1(O)C[C@H]2CN(CCc3c([nH]c4ccccc34)[C@@](C(=O)OC)(c3cc4c(cc3OC)N(C=O)[C@H]3[C@@](O)(C(=O)OC)[C@H](OC(C)=O)[C@]5(CC)C=CCN6CC[C@]43[C@@H]65)C2)C1 [vincristine]
- concentration inhibiting mitotic microtubule formation, inducing a blockade of cells at metaphase (mitotic microtubules): 2 µM
- concentration producing depolymerization of axonal microtubules (axonal microtubules): 5 µM

Compound: bevacizumab: recombinant humanized monoclonal IgG1 antibody that binds human VEGF
- effect on microvascular growth and metastatic disease progression [7]: reduction of microvascular growth and inhibition of metastatic disease progression
